For this assay, the system named is apyrase. In words: In vitro apyrase assay (screen for apyrase inhibitors, phosphate release read at 630 nm). It counts as biochemical. As to conditions: inhibitor conc at 1 mM; 1 hr at room temperature; rounded average of two assay results. The protocol:
Method 1: In Vitro Apyrase Assay: Apyrase inhibitors useful as enhancers of pesticidal activity are assessed using an in vitro assay. The method of Windsor, Bio Techniques 33:1024-1030 (November 2002) was used as follows: Screen for Apyrase Inhibitors - 96 well plates were used for the assay: (Greiner bio-one: REF-655901-96 well, PS, F-bottom, Clear, Non-binding) Buffers: • Reaction Buffer: 60 mM Hepes; 3 mM MgCl2, 3 mM CaCl2 and 3 mM ATP (pH 6.5) • Development Buffer A: 2% aqueous ammonium molybdate • Development Buffer B: 11% ascorbic acid in 37.5% TCA in water • Stop buffer C: 2% trisodium citrate in 2% acetic acid solution in water • Add 100 μl of reaction buffer to each well. • Add […] (control) or inhibitor/compound or compounds such as […] or orthovanadate to each well. […] A blank cell indicates either <10% observed inhibition or a large difference between repetitions. In certain examples, the lack of observed inhibition is due to a lack of solubility of the compound under assay conditions, rather than a lack of apyrase inhibitory activity. Roux compound 15 inhibited apyrase in this assay at about 60%.
For `C/C(=N\NC(=O)c1cccc(S(=O)(=O)Nc2ccccc2Cl)c1)c1ccc2ccccc2c1` [I-1, (E)-N-(2-chlorophenyl)-3-(2-(1-(naphthalen-2-yl)ethylidene)hydrazine-1-carbonyl)benzenesulfonamide], the “% Inhibition of Apyrase” value worked out at 74%.
On to `C/C(=N\NC(=O)c1ccc(NS(=O)(=O)c2cccs2)cc1)c1ccc2ccccc2c1` [I-2, (E)-N-(4-(2-(1-(naphthalen-2-yl)ethylidene)hydrazine-1-carbonyl)phenyl)thiophene-2-sulfonamide], for which the “% Inhibition of Apyrase” value stood at 60%.
For `C/C(=N\NC(=O)c1cccc(S(=O)(=O)N2CCOCC2)c1)c1ccc2ccccc2c1` [I-3, (E)-3-(morpholinosulfonyl)-N′-(1-(naphthalen-2-yl)ethylidene)benzohydrazide], the “% Inhibition of Apyrase” value came out at 46%.
`CCCCCCCCC/C(C)=N\NC(=O)c1ccccc1` [I-5, (Z)-N′-(undecan-2-ylidene)benzohydrazide]: the “% Inhibition of Apyrase” value is 22%.
As for `C/C(=N\NC(=O)c1cncc(Br)c1)c1ccc2ccccc2c1` [I-6, (E)-5-bromo-N′-(1-(naphthalen-2-yl)ethylidene)nicotinohydrazide], the “% Inhibition of Apyrase” value is recorded as 22%.
For the molecule `C/C(=N/NC(=O)c1cccc(C)c1)c1ccc2ccccc2c1` [I-7, (Z)-3-methyl-N′-(1-(naphthalen-2-yl)ethylidene)benzohydrazide], the “% Inhibition of Apyrase” value is on record as 20%.
Take `C/C(=N\NC(=O)c1ccc(-n2cnnn2)cc1)c1ccc2ccccc2c1` [I-8, (E)-N′-(1-(naphthalen-2-yl)ethylidene)-4-(1H-tetrazol-1-yl)benzohydrazide]: the “% Inhibition of Apyrase” value is given as 19%.
With `C/C(=N\NC(=O)c1ccc2c(c1)OCO2)c1cccnc1` [I-10, (E)-N′-(1-(pyridin-3-yl)ethylidene)benzo[d][1,3]dioxole-5-carbohydrazide], the “% Inhibition of Apyrase” value is recorded as 17%.
The same measure for `C/C(=N\NC(=O)c1cccc2ccccc12)c1ccc(C)c(C)c1` [I-11, (E)-N′-(1-(3,4-dimethylphenyl)ethylidene)-1-naphthohydrazide]: 17%; for `C/C(=N\NC(=O)c1ccccc1F)c1ccncc1` [I-12, (E)-2-fluoro-N′-(1-(pyridin-4-yl)ethylidene)benzohydrazide]: 16%; for `COc1ccc2cc(/C(C)=N/NC(=O)c3ccc4c(c3)OCO4)ccc2c1` [I-13, (E)-N′-(1-(6-methoxynaphthalen-2-yl)ethylidene)benzo[d][1,3]dioxole-5-carbohydrazide]: 16%.
For `C/C(=N\NC(=O)c1n[nH]c2c1CCCC2)c1ccc2ccccc2c1` [I-14, (E)-N′-(1-(naphthalen-2-yl)ethylidene)-4,5,6,7-tetrahydro-1H-indazole-3-carbohydrazide], the “% Inhibition of Apyrase” value is given as 16%.
Take `C/C(=N\NC(=O)c1cc(C)n[nH]1)c1ccc2ccccc2c1` [I-15, (E)-3-methyl-N′-(1-(naphthalen-2-yl)ethylidene)-1H-pyrazole-5-carbohydrazide]: the “% Inhibition of Apyrase” value turned out to be 15%.
Regarding `CCCCCC(=O)N/N=C(\C)c1cccc2ccccc12` [I-16, (E)-N′-(1-(naphthalen-1-yl)ethylidene)hexanehydrazide], the “% Inhibition of Apyrase” value was 14%.
Turning to `C/C(=N/NC(=O)c1ccccc1)C(=O)O` [I-17, (Z)-2-(2-benzoylhydrazineylidene)propanoic acid], the “% Inhibition of Apyrase” value is recorded as 14%.
For the molecule `C/C(=N\NC(=O)c1ccccc1C)c1ccccn1` [I-18, (E)-2-methyl-N′-(1-(pyridin-2-yl)ethylidene)benzohydrazide], the “% Inhibition of Apyrase” value was determined as 13%.
Regarding `CCC/C=N/NC(=O)c1ccccc1` [I-19, (E)-N′-butylidenebenzohydrazide], the “% Inhibition of Apyrase” value is 13%.
Consider `COc1ccc2cc(/C(C)=N/NC(=O)c3ccc(OC)c(OC)c3)ccc2c1` [I-20, (E)-3,4-dimethoxy-N′-(1-(6-methoxynaphthalen-2-yl)ethylidene)benzohydrazide], for which the “% Inhibition of Apyrase” value is 12%.
With `C/C(=N/NC(=O)c1ccc2nc[nH]c2c1)c1ccc2ccccc2c1` [I-21, (Z)-N′-(1-(naphthalen-2-yl)ethylidene)-1H-benzo[d]imidazole-6-carbohydrazide], the “% Inhibition of Apyrase” value is on record as 12%.
The same measure for `C/C(=N\NC(=O)c1ccccc1)c1ccc(-c2ccccc2)cc1` [I-22, (E)-N′-(1-([1,1′-biphenyl]-4-yl)ethylidene)benzohydrazide]: 12%; for `C/C(=N\NC(N)=O)c1cccc2ccccc12` [I-23, (E)-2-(1-(naphthalen-1-yl)ethylidene)hydrazine-1-carboxamide]: 12%; for `CCCCCC(=O)N/N=C(/C)c1ccc2ccccc2c1` [I-24, (Z)-N′-(1-(naphthalen-2-yl)ethylidene)hexanehydrazide]: 11%.
For the molecule `CCc1ccc(/C=N/NC(=O)c2ccccc2)cc1` [I-25, (E)-N′-(4-ethylbenzylidene)benzohydrazide], the “% Inhibition of Apyrase” value came to 11%.
As for `CC(C)(C)/C=N/NC(=O)c1ccccc1` [I-26, (E)-N′-(2,2-dimethylpropylidene)benzohydrazide], the “% Inhibition of Apyrase” value was 11%.
For `C/C(=N\NC(=O)c1ccc(Cl)cc1Cl)c1ccccn1` [I-27, (E)-2,4-dichloro-N′-(1-(pyridin-2-yl)ethylidene)benzohydrazide], the “% Inhibition of Apyrase” value turned out to be 10%.
Regarding `C/C(=N\NC(=O)c1cccc([N+](=O)[O-])c1)c1ccc2ccccc2c1` [I-29, (E)-N′-(1-(naphthalen-2-yl)ethylidene)-3-nitrobenzohydrazide], the “% Inhibition of Apyrase” value is 10%.
Under `CCCC(CCC)=NNC(=O)c1ccccc1F` [I-30, 2-fluoro-N′-(heptan-4-ylidene)benzohydrazide] stands 10%; under `C/C(=N\NC(=O)c1cccc(Cl)c1)c1ccc2ccccc2c1` [I-31, (E)-3-chloro-N′-(1-(naphthalen-2-yl)ethylidene)benzohydrazide], 10%.
On to `C/C(=N/NC(=O)c1cccc(C)c1)C1CC1` [I-32, (Z)-N′-(1-cyclopropylethylidene)-3-methylbenzohydrazide], for which the “% Inhibition of Apyrase” value is listed as 10%.
The same measure for `Cc1ccc(/C=N/NC(=O)c2ccccc2)cc1` [I-33, (E)-N′-(4-methylbenzylidene)benzohydrazide]: 10%; for `CC(=NNC(=O)c1cccc(C)c1)c1ccc2c(c1)CCCC2` [I-204, (E)-3-methyl-N′-(1-(5,6,7,8-tetrahydronapthalen-2-yl)ethylidene)benzohydrazide]: 74%; for `C/C(=N\NC(=O)c1cnnc(C)c1)c1ccc2ccccc2c1` [I-205, (E)-6-methyl-N′-(1-(naphthalen-2-yl)ethylidene)pyridazine-4-carbohydrazide]: 68%.
`C/C(=N\NC(=O)c1ccc(C)c(C)c1)c1ccc2ccccc2c1` [I-206, (E)-3,4-dimethyl-N′-(1-(naphthalen-2-yl)ethylidene)benzohydrazide]: the “% Inhibition of Apyrase” value was 68%.
`C/C(=N\NC(=O)c1cc(C)cs1)c1ccc2ccccc2c1` [I-207, (E)-4-methyl-N′-(1-(naphthalen-2-yl)ethylidene)thiophene-2-carbohydrazide]: the “% Inhibition of Apyrase” value is given as 68%.
Take `C/C(=N\NC(=O)c1ccc(NS(C)(=O)=O)cc1)c1ccc2ccccc2c1` [I-208, (E)-N-(4-(2-(1-(naphthalen-2-yl)ethylidene)hydrazine-1-carbonyl)phenyl)methanesulfonamide]: the “% Inhibition of Apyrase” value stood at 66%.
Take `C/C(=N\NC(=O)c1cccc(N(C)C)c1)c1ccc2ccccc2c1` [I-209, (E)-3-(dimethylamino)-N′-(1-(naphthalen-2-yl)ethylidene)benzohydrazide]: the “% Inhibition of Apyrase” value is 65%.
Take `C/C(=N\NC(=O)c1cccc(C(F)(F)F)c1)c1ccc2ccccc2c1` [I-210, (E)-N′-(1-(naphthalen-2-yl)ethylidene)-3-(trifluoromethyl)benzohydrazide]: the “% Inhibition of Apyrase” value is 63%.
Under `C/C(=N\NC(=O)c1cccc(C)n1)c1ccc2ccccc2c1` [I-211, (E)-6-methyl-N′-(1-(naphthalen-2-yl)ethylidene)picolinohydrazide] stands 56%; under `C/C(=N\NC(=O)c1ccc(C)s1)c1ccc2ccccc2c1` [I-212, (E)-5-methyl-N′-(1-(naphthalen-2-yl)ethylidene)thiophene-2-carbohydrazide], 56%; under `C/C(=N\NC(=O)c1ccccc1)c1ccc2ccccc2c1` [I-213, (E)-N′-(1-(naphthalen-2-yl)ethylidene)benzohydrazide], 55%.
As for `C/C(=N\NC(=O)c1csc(C)c1)c1ccc2ccccc2c1` [I-216, (E)-5-methyl-N′-(1-(naphthalen-2-yl)ethylidene)thiophene-3-carbohydrazidee], the “% Inhibition of Apyrase” value is listed as 44%.
For `C/C(=N\NC(=O)c1cccc(C)c1)c1ccc(C)c(C)c1` [I-217, (E)-N′-(1-(3,4-dimethylphenyl)ethylidene)-3-methylbenzohydrazide], the “% Inhibition of Apyrase” value is given as 44%.
For `CCc1cccc(C(=O)N/N=C(\C)c2ccc3ccccc3c2)c1` [I-218, (E)-3-ethyl-N′-(1-(naphthalen-2-yl)ethylidene)benzohydrazide], the “% Inhibition of Apyrase” value turned out to be 42%.

The record behind these values is patent US20240101510A1, “APYRASE INHIBITORS” (Texas Crop Science, priority 2022, published 2024).
